Measured values reported in patent publication US20250320206A1, “STAT6 DEGRADERS” (Gilead Sciences, Inc., priority 2024, published 2025).

biological target: T1, STAT6 (Homo sapiens, UniProt P42226); assay: Stat6 Degrader Assay (HiBiT based, HeLa LgBiT clone 4.14); type: cell-based; conditions: HeLa LgBiT clone 4.14 HiBiT-STAT6, 4-24 h incubation; read-out: STAT6 degradation Emax
T1 construct: These cells express endogenous STAT6; host or cells: HeLa LgBiT clone 4.14
T1 sequence (P42226 1-847): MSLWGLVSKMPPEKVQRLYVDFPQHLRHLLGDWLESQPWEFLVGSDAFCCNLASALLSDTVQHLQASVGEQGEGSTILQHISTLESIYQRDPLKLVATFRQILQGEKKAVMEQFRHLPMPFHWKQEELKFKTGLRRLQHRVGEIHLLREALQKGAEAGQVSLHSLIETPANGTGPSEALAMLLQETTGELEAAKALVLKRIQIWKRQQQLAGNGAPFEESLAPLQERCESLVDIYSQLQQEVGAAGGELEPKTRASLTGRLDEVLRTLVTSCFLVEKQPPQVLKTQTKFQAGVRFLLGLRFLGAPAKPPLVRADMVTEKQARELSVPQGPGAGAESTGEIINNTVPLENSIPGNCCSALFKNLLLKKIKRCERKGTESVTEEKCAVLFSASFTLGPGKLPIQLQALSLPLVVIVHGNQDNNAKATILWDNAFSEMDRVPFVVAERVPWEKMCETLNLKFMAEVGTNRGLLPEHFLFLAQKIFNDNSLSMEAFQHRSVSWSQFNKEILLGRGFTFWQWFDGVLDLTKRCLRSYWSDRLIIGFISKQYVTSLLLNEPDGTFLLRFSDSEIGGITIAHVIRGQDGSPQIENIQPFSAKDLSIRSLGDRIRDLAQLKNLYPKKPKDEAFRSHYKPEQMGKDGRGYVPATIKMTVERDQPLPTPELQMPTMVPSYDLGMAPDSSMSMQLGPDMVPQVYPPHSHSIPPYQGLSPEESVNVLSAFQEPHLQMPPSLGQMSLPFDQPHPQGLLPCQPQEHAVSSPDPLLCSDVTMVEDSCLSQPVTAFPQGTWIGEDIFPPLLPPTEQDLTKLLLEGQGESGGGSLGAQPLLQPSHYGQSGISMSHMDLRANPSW
Summary of the method: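 Luminescence from HiBiT-STAT6 complementing stably expressed LgBiT in HeLa clone 4.14 reports remaining STAT6 protein. Cells (5000/well) exposed to compound for 4-24 h at 37° C; read 0.5 h after Nano-Glo addition. 100% degradation window set with 50 μM terfenadine; percent degradation plotted against concentration.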

Row | Emax | Structure (SMILES)
1 | < 20% | C[C@H](c1cc2c(-n3ccc4[nH]ncc4c3=O)ccnc2n1C)N1CCC(c2ccc(C(=O)N3CCC(CN4CCN(Cc5ccc6c(c5)oc(=O)n6C5CCC(=O)NC5=O)CC4)CC3)cc2)CC1 (stereo partly drawn) [Example 3u265, 3-(6-((4-((1-(4-(1-((R)-1-(1-methyl-4-(4-oxo-1,4-dihydro-5H-pyrazolo[4,3-c]pyridin-5-yl)-1H-pyrrolo[2,3-b]pyridin-2-yl)ethyl)piperidin-4-yl)benzoyl)piperidin-4-yl)methyl)piperazin-1-yl)methyl)-2-oxobenzo[d]oxazol-3 (2H)-yl)piperidine-2,6-dione]
2 | 50 to 60% | Cc1cc(C(=O)N2CCC(CN3CCC(Cc4ccc5c(c4)n(C)c(=O)n5C4CCC(=O)NC4=O)CC3)CC2)cc(F)c1C1CCN(Cc2cc3c(-n4ccc(N)cc4=O)ccnc3n2C)CC1 (stereo not shown) [Example 3u267, 3-(5-((1-((1-(4-(1-((4-(4-amino-2-oxopyridin-1 (2H)-yl)-1-methyl-1H-pyrrolo[2,3-b]pyridin-2-yl)methyl)piperidin-4-yl)-3-fluoro-5-methylbenzoyl)piperidin-4-yl)methyl)piperidin-4-yl)methyl)-3-methyl-2-oxo-2,3-dihydro-1H-benzo[d]imidazol-1-yl)piperidine-2,6-dione]
3 | < 20% | CNc1cc(=O)n(-c2ccnc3c2cc([C@H](C)N2CC=C(c4c(C)cc(C(=O)N5CCC(CN6CCN(c7ccc8c(c7)n(C7CCC(=O)NC7=O)c(=O)n8C)CC6)CC5)cc4F)CC2)n3C)cc1F (stereo partly drawn) [Example 3u272, 3-(6-(4-((1-(3-fluoro-4-(1-((S)-1-(4-(5-fluoro-4-(methylamino)-2-oxopyridin-1 (2H)-yl)-1-methyl-1H-pyrrolo[2,3-b]pyridin-2-yl)ethyl)-1,2,3,6-tetrahydropyridin-4-yl)-5-methylbenzoyl)piperidin-4-yl)methyl)piperazin-1-yl)-3-methyl-2-oxo-2,3-dihydro-1H-benzo[d]imidazol-1-yl)piperidine-2,6-dione]
4 | < 20% | CNc1ccn(-c2ccnc3c2cc(CN2CCC(c4c(F)cc(C(=O)N5CCC(CN6CCN(c7cc8c(cc7F)n(C7CCC(=O)NC7=O)c(=O)n8C)CC6)CC5)cc4F)CC2)n3C)c(=O)c1F (stereo not shown) [Example 3u274, 3-(5-(4-((1-(3,5-difluoro-4-(1-((4-(3-fluoro-4-(methylamino)-2-oxopyridin-1 (2H)-yl)-1-methyl-1H-pyrrolo[2,3-b]pyridin-2-yl)methyl)piperidin-4-yl)benzoyl)piperidin-4-yl)methyl)piperazin-1-yl)-6-fluoro-3-methyl-2-oxo-2,3-dihydro-1H-benzo[d]imidazol-1-yl)piperidine-2,6-dione]

same assay, conditions: HeLa LgBiT clone 4.14 HiBiT-STAT6, 4-24 h incubation; values given for compounds with >80% Emax; geometric mean; read-out: STAT6 degradation DC50

Row | DC50 | Structure (SMILES)
5 | 57.4 nM | CNc1ccn(-c2ccnc3c2cc([C@H](C)N2CC=C(c4c(C)cc(C(=O)N5CCn6c(nnc6C6CCN(Cc7ccc8c(c7)n(C)c(=O)n8C7CCC(=O)NC7=O)CC6)C5)cc4F)CC2)n3C)c(=O)c1 (stereo partly drawn) [Example 3u275, 3-(5-((4-(7-(3-fluoro-5-methyl-4-(1-((S)-1-(1-methyl-4-(4-(methylamino)-2-oxopyridin-1 (2H)-yl)-1H-pyrrolo[2,3-b]pyridin-2-yl)ethyl)-1,2,3,6-tetrahydropyridin-4-yl)benzoyl)-5,6,7,8-tetrahydro-[1,2,4]triazolo[4,3-a]pyrazin-3-yl)piperidin-1-yl)methyl)-3-methyl-2-oxo-2,3-dihydro-1H-benzo[d]imidazol-1-yl)piperidine-2,6-dione]
6 | 4.3 nM | CNc1cc(=O)n(-c2ccnc3c2cc([C@H](C)N2CC=C(c4c(C)cc(C(=O)N5CCC(CN6CCN(c7ccc8c(c7)n(C7CC7)c(=O)n8C7CCC(=O)NC7=O)CC6)CC5)cc4F)CC2)n3C)cc1F (stereo partly drawn) [Example 3u276, 3-(3-cyclopropyl-5-(4-((1-(3-fluoro-4-(1-((S)-1-(4-(5-fluoro-4-(methylamino)-2-oxopyridin-1 (2H)-yl)-1-methyl-1H-pyrrolo[2,3-b]pyridin-2-yl)ethyl)-1,2,3,6-tetrahydropyridin-4-yl)-5-methyl-benzoyl)piperidin-4-yl)methyl)piperazin-1-yl)-2-oxo-2,3-dihydro-1H-benzo[d]imidazol-1-yl)piperidine-2,6-dione]
7 | 0.4 nM | CNc1ccn(-c2ccnc3c2cc([C@H](C)N2CC=C(c4c(C)cc(C(=O)N5CCn6nc(CN7CCN(c8ccc9c(c8)n(C)c(=O)n9C8CCC(=O)NC8=O)CC7)cc6C5)cc4F)CC2)n3C)c(=O)c1 (stereo partly drawn) [Example 3u277, 3-(5-(4-((5-(3-fluoro-5-methyl-4-(1-((S)-1-(1-methyl-4-(4-(methylamino)-2-oxopyridin-1 (2H)-yl)-1H-pyrrolo[2,3-b]pyridin-2-yl)ethyl)-1,2,3,6-tetrahydropyridin-4-yl)benzoyl)-4,5,6,7-tetrahydropyrazolo[1,5-a]pyrazin-2-yl)methyl)piperazin-1-yl)-3-methyl-2-oxo-2,3-dihydro-1H-benzo[d]imidazol-1-yl)piperidine-2,6-dione]

system: Eotaxin-3 release in human whole blood stimulated with IL-4; assay: Human Whole Blood Eotaxin-3 Assay (IL-4 stimulated eotaxin-3 release); type: cell-based; conditions: IL-4 stimulation, 48 h, values given for compounds with >80% Emax, geometric mean
Procedure: Human Whole Blood Eotaxin-3 Assay
This was a human whole blood assay using recombinant human Interleukin 4 to stimulate the blood and measuring the ability of the test compounds to inhibit eotaxin-3 release. The biological activities of the test compounds have been tested in human whole blood stimulated with IL-4 measuring Eotaxin-3 release. The test compounds were added to 384 well clear flat-bottom plate in a 4-fold serial dilution in triplicates using a liquid handler. Human whole blood stabilized in lithium-heparin tubes was added in a volume of 65 μL per well, resulting in a final DMSO concentration of 0.5%. The plate is incubated for 2 h at 37° C. under 5% CO2/95% air. Subsequently, 5 μL of recombinant human IL-4 (R&D Systems, cat #204-ILB) was added to the wells to a final concentration of […]. The plate was incubated for 48 h at 37° C. under 5% CO2/95% air. The plate was spun down for 10 minutes at 500×g and 20 μL supernatant was harvested and transferred to a 384 well v-bottom plate using a liquid handler and stored at −20° C. until further analysis. 10 μL supernatant was used to measure the level of Eotaxin-3 (CCL26) using Human Eotaxin-3 MSD kit from Mesocsale (Cat #K251UEK-4). The assay was performed according to the manufacture instructions.
The data from the human whole blood eotaxin-3 assay is shown in FIG. 2 for Examples 3u208, 3u246, 3u118, 3u119, 3u120, and 3u74 (where the effect in % is plotted against the test concentration in M on a log scale).

Row | EC50 | Structure (SMILES)
8 | 93.5 nM | CNc1cc(=O)n(-c2ccnc3c2cc([C@H](C)N2CC=C(c4c(C)cc(C(=O)N5CCC(CN6CCN(c7ccc8c(c7)C7(CC7)C(=O)N8[C@H]7CCC(=O)NC7=O)C[C@@H]6C)CC5)cc4F)CC2)n3C)cc1F (single isomer, unassigned) [Example 3u65]
9 | 39.2 nM | CNc1ccn(-c2ccnc3c2cc(CN2CCC(c4c(F)cc(C(=O)N5CCC(CN6CCN(c7ccc8c(c7)C7(CC7)C(=O)N8[C@@H]7CCC(=O)NC7=O)CC6)CC5)cc4F)CC2)n3C)c(=O)c1 (single isomer, unassigned) [Example 3u150]
10 | 12.8 nM | CNc1ccn(-c2ccnc3c2cc([C@H](C)N2CC=C(c4c(C)cc(C(=O)N5CCC(CN6CCN(c7ccc8c(c7)C(C)(C)C(=O)N8[C@H]7CCC(=O)NC7=O)CC6)CC5)cc4F)CC2)n3C)c(=O)c1 (single isomer, unassigned) [Example 3u280]
11 | 88.3 nM | CNc1cc(=O)n(-c2ccnc3c2cc(CN2CCC(c4c(F)cc(C(=O)N5CCC(CN6CCN(c7ccc8c(c7)C7(CC7)C(=O)N8[C@H]7CCC(=O)NC7=O)CC6)CC5)cc4F)CC2)n3C)cc1F (single isomer, unassigned) [Example 3u288]
12 | 18.9 nM | CNc1cc(=O)n(-c2ccnc3c2cc(CN2CCC(c4c(F)cc(C(=O)N5CCC(CN6CCN(c7ccc8c(c7)C7(CC7)C(=O)N8[C@@H]7CCC(=O)NC7=O)CC6)CC5)cc4F)CC2)n3C)cc1F (single isomer, unassigned) [Example 3u289]
13 | 7.4 nM | CNc1ccn(-c2ccnc3c2cc(CN2CCC(c4c(F)cc(C(=O)N5CCC(CN6CCN(c7cc8c(cc7F)n(C7CCC(=O)NC7=O)c(=O)n8C)CC6)CC5)cc4F)CC2)n3C)c(=O)n1 (stereo not shown) [Example 3h43, 3-(5-(4-((1-(3,5-difluoro-4-(1-((1-methyl-4-(4-(methylamino)-2-oxopyrimidin-1 (2H)-yl)-1H-pyrrolo[2,3-b]pyridin-2-yl)methyl)piperidin-4-yl)benzoyl)piperidin-4-yl)methyl)piperazin-1-yl)-6-fluoro-3-methyl-2-oxo-2,3-dihydro-1H-benzo[d]imidazol-1-yl)piperidine-2,6-dione]
